ChEMBL document CHEMBL5247674, “Discovery of Selective and Potent KRASG12D Inhibitors as Potential Therapy in Cancer” (ACS Med Chem Lett, 2023)

Legend:
[1] = target: GTPase KRas (Homo sapiens, UniProt P01116, G12D); assay: Inhibition of human KRAS G12D mutant in human AGS cells assessed as reduction in phosphorylated ERK level incubated for 3 hrs; format: cell-based
[2] = species: Homo sapiens; assay: Selectivity ratio of IC50 for inhibition of KRAS G12D mutant (unknown origin) to CRAF (unknown origin) protein protein interaction to IC50 for KRAS (unknown origin) to CRAF (unknown origin) protein protein interaction; settings: tested as the 2H-labelled form
[3] = target: GTPase KRas/RAF1 (Homo sapiens, UniProt P01116); assay: Inhibition of KRAS (unknown origin) to CRAF (unknown origin) protein protein interaction; format: protein assay
[4] = Inhibition of KRAS G12D mutant (unknown origin) to CRAF (unknown origin) protein protein interaction; parameters: species or system Homo sapiens

Sequence of GTPase KRas (P01116 whole entry G12D): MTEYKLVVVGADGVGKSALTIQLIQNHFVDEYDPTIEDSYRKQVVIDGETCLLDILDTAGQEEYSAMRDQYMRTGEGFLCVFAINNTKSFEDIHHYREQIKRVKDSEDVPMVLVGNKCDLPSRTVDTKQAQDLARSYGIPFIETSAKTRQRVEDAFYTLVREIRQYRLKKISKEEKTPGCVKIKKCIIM
Sequence of GTPase KRas/RAF1 (P04049 whole entry): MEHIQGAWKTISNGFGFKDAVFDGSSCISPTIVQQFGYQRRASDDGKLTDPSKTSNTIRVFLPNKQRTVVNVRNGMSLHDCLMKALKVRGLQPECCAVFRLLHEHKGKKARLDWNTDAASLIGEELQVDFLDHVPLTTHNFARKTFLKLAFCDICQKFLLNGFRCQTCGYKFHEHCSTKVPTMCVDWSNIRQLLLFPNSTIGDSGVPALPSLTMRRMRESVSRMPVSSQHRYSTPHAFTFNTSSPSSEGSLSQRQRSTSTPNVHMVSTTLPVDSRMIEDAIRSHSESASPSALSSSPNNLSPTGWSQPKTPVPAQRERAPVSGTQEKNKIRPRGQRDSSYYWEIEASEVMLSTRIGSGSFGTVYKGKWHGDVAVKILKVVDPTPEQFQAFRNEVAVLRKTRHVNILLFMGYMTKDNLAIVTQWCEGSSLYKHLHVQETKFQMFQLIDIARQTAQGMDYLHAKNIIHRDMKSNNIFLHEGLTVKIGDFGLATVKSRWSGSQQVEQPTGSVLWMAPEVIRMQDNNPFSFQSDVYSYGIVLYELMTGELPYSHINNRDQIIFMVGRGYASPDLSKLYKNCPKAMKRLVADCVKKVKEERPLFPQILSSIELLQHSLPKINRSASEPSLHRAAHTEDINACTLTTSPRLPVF
Sequence of GTPase KRas/RAF1 (P01116 whole entry): as the sequence (P01116 whole entry G12D) above, with D12G counted along it

SMILES | IC50 [1] | Ratio IC50 [2] | IC50 [3] | IC50 [4]
[2H]C1([2H])CC[C@@]2(COc3nc(N4CC5CCC4CN5)c4cnc(-c5cc(O)cc(F)c5C5CC5)c(F)c4n3)C[C@@]([2H])(F)CN12 (some centres undefined) | > 50 nM |  |  | 
Oc1ccc(C(F)(F)F)c(-c2ncc3c(N4CC5CCC4CN5)nc(OCC45CCCN4CCC5)nc3c2F)c1 (centres undefined) | > 1 nM |  |  | 
Oc1cc(Cl)c(C(F)(F)F)c(-c2ncc3c(N4CC5CCC4CN5)nc(OCC45CCCN4CCC5)nc3c2F)c1 (centres undefined) | > 1 nM |  |  | 
Oc1cc(Cl)c(C2CC2)c(-c2ncc3c(N4CC5CCC4CN5)nc(OC[C@]45CCCN4C[C@@H](F)C5)nc3c2F)c1 (some centres undefined) | > 50 nM |  |  | 
[2H]C1([2H])CC[C@]2(COc3nc(N4CC5CCC4CN5)c4cnc(-c5cc(O)cc(Cl)c5C5CC5)c(F)c4n3)C[C@]([2H])(F)CN12 (some centres undefined) | > 50 nM |  |  | 
[2H]C1([2H])CC[C@@]2(COc3nc(N4CC5CCC4CN5)c4cnc(-c5cc(O)cc(Cl)c5C5CC5)c(F)c4n3)C[C@@]([2H])(F)CN12 (some centres undefined) | ≤ 50 nM |  | > 1000 nM | 13.9 nM

Now from value to compound:

IC50 [1] | Ratio IC50 [2] | IC50 [3] | IC50 [4] | SMILES
 | 12 |  |  | C#Cc1c(F)ccc2cc(O)cc(-c3ncc4c(N5CC6CCC5CN6)nc(OC[C@@]56CCCN5C[C@H](F)C6)nc4c3F)c12 (some centres undefined)
 | 12 |  |  | C#Cc1c(F)ccc2cc(O)cc(-c3ncc4c(N5CC6CCC5CN6)nc(OCC56CCCN5CCC6)nc4c3F)c12 (centres undefined)
≤ 50 nM |  | 48.9 nM | 3.95 nM | [2H][C@H]1CN2CCC[C@@]2(COc2nc(N3CC4CCC3CN4)c3cnc(-c4cc(O)cc5ccc(F)c(C#C)c45)c(F)c3n2)C1 (some centres undefined)
≤ 50 nM |  |  |  | [2H]C1([2H])CC[C@@]2(COc3nc(N4CC5CCC4CN5)c4cnc(-c5cc(O)cc6ccc(F)c(F)c56)c(F)c4n3)C[C@@]([2H])(F)CN12 (some centres undefined)
≤ 50 nM |  | 59.6 nM | 5.07 nM | [2H]C1([2H])CC[C@@]2(COc3nc(N4CC5CCC4CN5)c4cnc(-c5cc(O)cc6ccc(F)c(C#C)c56)c(F)c4n3)C[C@@]([2H])(F)CN12 (some centres undefined)
≤ 50 nM | > 72 |  |  | Oc1cc(Cl)c(C2CC2)c(-c2ncc3c(N4CC5CCC4CN5)nc(OC[C@@]45CCCN4C[C@H](F)C5)nc3c2F)c1 (some centres undefined)
